Experimental data as given in patent publication US8178574B2, “Tosylate salt of trans-N-isobutyl-3-fluoro-3-[3-fluoro-4-(pyrrolidin-1-yl-methyl)-phenyl] cyclobut anecarboxamide” (Pfizer Inc., priority 2007, dated 2012).
Structures can show the parent of a compound that is named as a salt.

Experiments:
[1] = Hygroscopicity by dynamic vapor sorption (VTI, kinetic experiment); type: physicochemical
Description: Hygroscopicity was assessed using a dynamic vapor sorption technique in which an accurately weighed sample is subjected to progressively changing water vapor pressure while simultaneously recording the weight change. The experiment is conducted isothermally at 25° C.
During the initial drying cycle (25° C., 1-3% RH), approximately 0.8% weight loss was observed, which is consistent with an anhydrous form. The sample gained 0.5% of its original weight when exposed to relative humidities from 0% to 90% at 25° C. (CQG≦2% wt. gain at 90% RH). […] FIG. 5 (VTI Moisture Sorption Data) reports results achieved in a step isotherm at a heating rate of 1° C./minute.

[2] = Aqueous solubility of the crystalline compound (RP-HPLC after temperature cycling); type: physicochemical; settings: for solubility thermodynamic at 25 h: aqueous buffer
Description: The following information was determined in regard of aqueous solubility. […] These values represent the solubility of the crystalline compound determined via RP-HPLC analysis after subjecting the drug media mixture to a temperature cycling program (40° C. for 8 hours, 15° C. for 5 hours, and 25° C. for 12 hours).

- weight loss during initial drying cycle ([1]; 25° C., 1-3% RH): approximately 0.8%
- hygroscopicity (in words) ([1]; kinetic experiment (VTI), 25° C.): very slightly hygroscopic
- weight gain (of original weight) ([1]; relative humidities from 0% to 90% at 25° C.): 0.5%
- solubility ([2]; 0.1M phosphate buffered saline with 0.5 weight percent sodium taurocholate/phosphatidyl choline salts, final pH 7.4): 7.0 mgA/mL
- solubility thermodynamic at 25 h ([2]; 0.1M phosphate buffered saline, final pH 6.3, temperature cycling 40/15/25° C.): 5000 µg/mL
- solubility thermodynamic at 25 h ([2]; unbuffered water, final pH 4.7): 8400 µg/mL
Structure (SMILES): CC(C)CNC(=O)[C@H]1C[C@@](F)(c2ccc(CN3CCCC3)c(F)c2)C1 [tosylate salt of the invention]
